# Measured values from patent US11059810B2, “Pharmaceutically acceptable salt as renal outer medullary potassium channel inhibitor” (Jiangsu Hengrui Medicine Co., Ltd., priority 2016, dated 2021).
# Tests used:
# [1] = Pharmacokinetics assay in SD rats after intragastric administration (plasma LC/MS/MS); assay type: in vivo; conditions: po 5.0 mg/kg; for CL/F: read-out: Cl/F—obs (clearance)
# Experimental: SD rats were used as test animals. The drug concentration in plasma at different time points was determined by LC/MS/MS method after intragastrical administration of the crystal form 2 of the malate of the present invention and free form. The pharmacokinetic behavior and property of the crystal form 2 of the malate of the present invention and free form were studied and evaluated in SD rats.
# Samples: crystal form 2 of the malate of the present invention and free form (the product of Example 1), prepared according to the methods of Examples 14 and 1.
# Test animals: 8 healthy SD rats, half male and half female, were divided in two groups, and purchased from SINO-BRITSH SIPPR/BK LAB. ANIMAL LTD., CO, with certificate No.: SOCK (Shanghai) 2008-0016.
# Preparation of the test compounds: the test compounds were added to 0.5% CMC-Na to prepare 0.5 mg/mL homogeneous suspensions for oral administration by ultrasound.
# Administration: after an overnight fasting, 8 healthy SD rats, half male and half female, were administered the test compounds intragastrically at an administration volume of 10 mL/kg.
# After an overnight fasting, 8 healthy SD rats, half male and half female, were administered the test compounds intragastrically. Blood samples (0.1 mL) were taken by jugular vein puncture before administration and at 0.5, 1, 2, 4, 6, 8, 12, and 24 hours after administration, and heparin sodium was used as an anticoagulant. The blood samples were centrifuged for 10 minutes at 3,500 rpm to separate the blood plasma, which was stored at −20° C. The content of the test compound in the plasma of SD rats after intragastric administration was determined by LC/MS/MS method.
# [2] = Stability of crystal forms spread flat in air under lighting, heating and high humidity (purity by HPLC); assay type: physicochemical
# Experimental: The sample of crystal form I of the compound of formula (I) prepared in Example 2 and the sample of crystal form II prepared in Example 3 were spread flat in the air respectively to test the stability under conditions of lighting (4500 Lux), heating (40° C., 60° C.), and high humidity (RH 75%, RH 90%). Samplings were carried out on Day 5 and Day 10.
# [3] = Special stability study of crystal form I (grinding, heating, tableting; XRPD/DSC); assay type: physicochemical
# Source text: Crystal form I of the compound of formula (I) prepared according to the method of Example 2 was ground, heated and tableted.
# [4] = Salt formation study (solubility, hygroscopicity); assay type: physicochemical; conditions: in words
# Source text: In a preferred embodiment, the salt can be selected from the group consisting of tartrate, hydrochloride, sulfate, methanesulfonate, phosphate, citrate, maleate, fumarate, malate, benzenesulfonate, p-toluenesulfonate and hydrobromide, and most preferably L-tartrate and malate. The L-tartrate of (R)-5-cyano-N-(1-(2-hydroxy-2-(4-methyl-1-oxo-1,3-dihydroisobenzofuran-5-yl)ethyl) piperidin-4-yl)-4-methoxypicolinamide, i.e. the compound of the following formula (I), can be obtained by reacting (R)-5-cyano-N-(1-(2-hydroxy-2-(4-methyl-1-oxo-1,3-dihydroisobenzofuran-5-yl)ethyl) piperidin-4-yl)-4-methoxypicolinamide with L-tartaric acid. The hydrochloride, sulfate, methanesulfonate, phosphate, citrate, maleate, fumarate, malate, benzenesulfonate, p-toluenesulfonate and hydrobromide of (R)-5-cyano-N-(1-(2-hydroxy-2-(4-methyl-1-oxo-1,3-dihydroisobenzofuran-5-yl)ethyl) piperidin-4-yl)-4-methoxypicolinamide can be prepared by using a similar method. […]
# [5] = both sexes, rat, plasma, 0.5% CMC-Na suspension
Structure (SMILES),"CL/F [1, 5]",AUClast (area under curve 0→t) ([1]; 0.5% CMC-Na suspension),"purity as detected by HPLC ([2]; 40° C., day 0)","purity as detected by HPLC ([2]; 40° C., day 5)","purity as detected by HPLC ([2]; 40° C., day 10)","purity as detected by HPLC ([2]; 60° C., day 0)","purity as detected by HPLC ([2]; 60° C., day 5)","purity as detected by HPLC ([2]; 60° C., day 10)","purity as detected by HPLC ([2]; Lighting (4500 Lux), day 0)","purity as detected by HPLC ([2]; Lighting (4500 Lux), day 5)","purity as detected by HPLC ([2]; Lighting (4500 Lux), day 10)","purity as detected by HPLC ([2]; RH 75%, day 0)","purity as detected by HPLC ([2]; RH 75%, day 5)","purity as detected by HPLC ([2]; RH 75%, day 10)","purity as detected by HPLC ([2]; RH 90%, day 0)","purity as detected by HPLC ([2]; RH 90%, day 5)","purity as detected by HPLC ([2]; RH 90%, day 10)",further results
"COc1cc(C(=O)NC2CCN(C[C@H](O)c3ccc4c(c3C)COC4=O)CC2)ncc1C#N.O=C(O)CC(O)C(=O)O [Crystal form 2 of the malate, (R)-5-cyano-N-(1-(2-hydroxy-2-(4-methyl-1-oxo-1,3-dihydroisobenzofuran-5-yl)ethyl)piperidin-4-yl)-4-methoxypicolinamide]",0.412 L/h/kg,13.365 µg·h/mL,,,,,,,,,,,,,,,,"half-life ([1]; both sexes, rat, plasma, 0.5% CMC-Na suspension, read-out: T1/2 (half-life) (converted)): 5.24 h; Vd/F ([1]; both sexes, rat, plasma, 0.5% CMC-Na suspension, read-out: Vz/F—obs (apparent distribution volume)): 3.09 L/kg; clearance compared to the free form ([1]; in words): lower; exposure dose compared to the free form ([1]; in words): higher; half-life compared to the free form ([1]; in words): longer"
"COc1cc(C(=O)NC2CCN(C[C@H](O)c3ccc4c(c3C)COC4=O)CC2)ncc1C#N.O=C(O)C(O)C(O)C(=O)O [Crystal form I, L-tartrate of (R)-5-cyano-N-(1-(2-hydroxy-2-(4-methyl-1-oxo-1,3-dihydroisobenzofuran-5-yl)ethyl)piperidin-4-yl)-4-methoxypicolinamide]",,,99.67%,99.52%,99.45%,99.67%,99.55%,99.39%,99.67%,99.54%,99.34%,99.67%,99.53%,99.39%,99.67%,99.59%,99.43%,"stability under conditions of lighting, high temperature and high humidity ([2]; in words): stable; stability compared with crystal form II ([2]; spread flat in air, lighting, high temperature and high humidity, in words): significantly better; DSC peak after treatment ([3]; Grinding treatment for 10 minutes in a mortar under nitrogen): 214.17 °C; DSC peak after treatment ([3]; Heating treatment for 3 hours at 80° C.): 214.40 °C; DSC peak after treatment ([3]; Tableting treatment): 214.44 °C; stability of the crystal form ([3]; grinding, heating / pressure (tableting), in words): stable"
"COc1cc(C(=O)NC2CCN(C[C@H](O)c3ccc4c(c3C)COC4=O)CC2)ncc1C#N.O=C(O)C(O)C(O)C(=O)O [Crystal form II, L-tartrate of (R)-5-cyano-N-(1-(2-hydroxy-2-(4-methyl-1-oxo-1,3-dihydroisobenzofuran-5-yl)ethyl)piperidin-4-yl)-4-methoxypicolinamide]",,,99.47%,99.38%,99.15%,99.47%,99.22%,98.87%,99.47%,99.23%,98.62%,99.47%,99.30%,99.10%,99.47%,99.30%,99.10%,
"COc1cc(C(=O)NC2CCN(C[C@H](O)c3ccc4c(c3C)COC4=O)CC2)ncc1C#N [Free form, (R)-5-cyano-N-(1-(2-hydroxy-2-(4-methyl-1-oxo-1,3-dihydroisobenzofuran-5-yl)ethyl)piperidin-4-yl)-4-methoxypicolinamide]",0.589 L/h/kg,9.283 µg·h/mL,,,,,,,,,,,,,,,,solubility [4]: low
"COc1cc(C(=O)NC2CCN(C[C@H](O)c3ccc4c(c3C)COC4=O)CC2)ncc1C#N [sulfate, (R)-5-cyano-N-(1-(2-hydroxy-2-(4-methyl-1-oxo-1,3-dihydroisobenzofuran-5-yl)ethyl)piperidin-4-yl)-4-methoxypicolinamide]",,,,,,,,,,,,,,,,,,hygroscopicity ([4]; salt formation study): obviously hygroscopic
